Assay results reported in patent US8518942B2, “Caspase inhibitors and uses thereof” (Buck Institute for Research on Aging, priority 2008, dated 2013).

What was measured:
Format in all cases: biochemical
Caspase 3 = target: T1, Caspase 3 (Homo sapiens, UniProt P42574); test: Irreversible inhibitor kinetic assay (progress curve), caspase-3, substrate Ac-DEVD-AMC; parameters: gift: Guy Salvesen's laboratory, Burnham Institute (La Jolla, Calif.); details: casp-3; duplicate, SD included
T1 sequence (P42574 29-175 limits assumed): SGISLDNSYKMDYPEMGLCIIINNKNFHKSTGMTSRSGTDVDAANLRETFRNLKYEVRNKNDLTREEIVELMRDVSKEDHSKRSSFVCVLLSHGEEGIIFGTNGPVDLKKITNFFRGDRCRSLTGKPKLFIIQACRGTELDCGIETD
T1 sequence (P42574 176-277 limits assumed): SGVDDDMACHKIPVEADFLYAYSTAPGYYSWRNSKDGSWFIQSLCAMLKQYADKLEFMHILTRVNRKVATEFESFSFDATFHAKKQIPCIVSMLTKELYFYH
Description: (§1) Caspases-3, -6, -7, -8, and -9 were provided by Guy Salvesen's laboratory at the Burnham Institute (La Jolla, Calif.). Caspase-1 was purchased from EMD Biosciences (San Diego, Calif.) and Caspase-2 was purchased from Biomol International (Plymouth Meeting, Pa.). Caspase substrates Ac-DEVD-AMC, Ac-VDVAD-AFC, and Ac-LEHD-AFC were purchased from EMD Biosciences (San Diego, Calif.) and Ac-VDVAD-AMC was purchased from Biomol International (Plymouth Meeting, Pa.). The proteolytic cleavage of N-acyl aminocoumarins by caspases was conducted in Dynatech Microfluor fluorescence 96-well microtiter plates, and readings were taken on a Molecular Devices Spectra Max Gemini XS instrument. The excitation wavelength was 370 nm and the emission wavelength was 455 nm for AMCA substrates, the excitation wavelength was 355 nm and the emission wavelength was 450 nm for peptidyl AMC substrates, and the excitation wavelength was 430 nm and the emission wavelength was 535 nm for peptidyl AFC substrates.
(§2) The kinact/Ki for inhibitors were determined under pseudo-first order conditions using the progress curve method (Eckici et al. (2006) J. Med. Chem., 49: 5728-5749; Bieth (1995) Meth. Enzymol., 248: 59-84). Assay wells contained a mixture of inhibitor and AMC or AFC substrate in buffer. Aliquots of caspase were added to each well to initiate the assay. Hydrolysis of the AMC or AFC substrate was monitored fluorometrically for 45 min. To determine the inhibition parameters, time points for which the control ([I]=0) was linear were used. For each inhibitor, a kobs was calculated for at least four different concentrations of inhibitors via a nonlinear regression of the data according to the equation P=(vi/kobs)[1−exp(−kobst) (where product formation=P, […], and the first-order rate constant=kobs). If kobs varied linearly with [I], then the association constant kass was determined by linear regression analysis using kobs=(kass[I])/(1+[S]/Km) where [S] is the concentration of the substrate. […] Inhibition was measured in duplicate and the average of is reported. […]

caspase-1 = target: T2, caspase-1 (Homo sapiens, UniProt P29466); test: Irreversible inhibitor kinetic assay (progress curve), caspase-1, substrate Ac-WEHD-AMC; details: casp-1; duplicate, SD included
T2 construct: purchased EMD Biosciences (San Diego, Calif.)
T2 sequence (P29466 120-297 limits assumed): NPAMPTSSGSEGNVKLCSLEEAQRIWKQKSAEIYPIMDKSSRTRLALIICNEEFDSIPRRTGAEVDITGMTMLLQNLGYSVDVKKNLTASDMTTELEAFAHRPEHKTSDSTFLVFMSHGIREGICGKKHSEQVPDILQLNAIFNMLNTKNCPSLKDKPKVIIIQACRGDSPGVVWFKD
T2 sequence (P29466 317-404 limits assumed): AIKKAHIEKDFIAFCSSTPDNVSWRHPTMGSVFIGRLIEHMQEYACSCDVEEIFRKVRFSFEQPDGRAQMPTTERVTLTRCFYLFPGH
Description: as §1, §2

caspase-6 = target: T3, caspase-6 (Homo sapiens, UniProt P55212); test: Blots of full-length huntingtin (23Q & 148Q) treated with caspase-6 plus inhibitor; details: for Proteolysis of Htt at amino acid 586 (caspase-6 site): 1-100 nM; for Inhibition of caspase-6 cleavage of full-length huntingtin (blot): 23Q & 148Q, at 1.0 μM and 10 μM; for Blocking the cleavage of Htt at amino acid 586 mediated by caspase-6: conclusion
T3 construct: gift: Guy Salvesen's laboratory, Burnham Institute (La Jolla, Calif.)
T3 sequence (P55212 24-179 limits assumed): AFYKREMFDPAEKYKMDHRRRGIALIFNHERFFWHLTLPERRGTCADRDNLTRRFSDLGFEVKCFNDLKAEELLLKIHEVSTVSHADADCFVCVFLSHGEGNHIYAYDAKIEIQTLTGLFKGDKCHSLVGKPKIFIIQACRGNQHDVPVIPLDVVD
T3 sequence (P55212 194-293 limits assumed): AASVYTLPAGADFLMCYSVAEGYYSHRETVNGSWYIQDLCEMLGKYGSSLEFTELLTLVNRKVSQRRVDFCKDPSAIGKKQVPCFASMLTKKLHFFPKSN

With C[C@@](NC(=O)CCCC(=O)O)(c1cn([C@@H](CC(=O)O)C(=O)COc2c(F)c(F)cc(F)c2F)nn1)C1CCCCC1 [MJL-002i] the kinact/Ki (Caspase 3) was 81,700 ± 6,900 s^−1/M^−1, the kinact/Ki (caspase-1) was 243,250 ± 350 s^−1/M^−1 and the “Proteolysis of Htt at amino acid 586 (caspase-6 site)” value (“Proteolysis of Htt” below) (caspase-6) was “blocked”. The “Inhibition of caspase-6 cleavage of full-length huntingtin (blot)” value (“Inhibition” below) (caspase-6) was “inhibition” and the “Blocking the cleavage of Htt at amino acid 586 mediated by caspase-6” value (“Blocking the cleavage of Htt” below) (caspase-6) was “affective at blocking”.
In the case of C[C@@](NS(=O)(=O)Cc1ccccc1)(c1cn([C@@H](CC(=O)O)C(=O)COc2c(F)c(F)cc(F)c2F)nn1)C1CCCCC1 [MJL-001i], the kinact/Ki (Caspase 3) is reported as 47,000 ± 1,400 s^−1/M^−1, the kinact/Ki (caspase-1) is reported as 55,200 ± 2,600 s^−1/M^−1 and the “Proteolysis of Htt” value (caspase-6) is reported as “blocked”. The “Inhibition” value (caspase-6) was “inhibition” and the “Blocking the cleavage of Htt” value (caspase-6) was “affective at blocking”.
C[C@@](NC(=O)Cc1ccccc1)(c1cn([C@@H](CC(=O)O)C(=O)COc2c(F)c(F)cc(F)c2F)nn1)C1CCCCC1 [MJL-003i] was tested, and the kinact/Ki (Caspase 3) was 29,850 ± 850 s^−1/M^−1, the kinact/Ki (caspase-1) was 55,200 ± 200 s^−1/M^−1 and the “Proteolysis of Htt” value (caspase-6) was “blocked”. The “Inhibition” value (caspase-6) was “inhibition” and the “Blocking the cleavage of Htt” value (caspase-6) was “affective at blocking”.
